Test: physchem
Conditions: buffer, pH 7.68
Method: 50 μL aliquots were removed periodically. […] Each aliquot was diluted with MeCN-d3 (150 μL), and a ^1H NMR spectrum was acquired (128 scans at 25° C., with acquisition starting 3 minutes after the aliquot was taken from the reaction).
The methods for determining the half-lives were approximately the same as described above, with variations in procedure depending on such variables as solubility and reaction rates.

## COc1cc(F)c(C(C)C)cc1-c1ccc(C(F)(F)F)cc1CN[C@@H](C)[C@H](OC(=O)OC(COP(=O)(O)O)COP(=O)(O)O)c1cc(C(F)(F)F)cc(C(F)(F)F)c1 [Example 47, (8R,9S)-8-[3,5-bis(trifluoromethyl)phenyl]-N-{[4′-fluoro-5′-isopropyl-2′-methoxy-4-(trifluoromethyl)biphenyl-2-yl]methyl}-1,1-dihydroxy-6-oxo-4-[(phosphonooxy)methyl]-2,5,7-trioxa-1λ^5-phosphadecan-9-aminium1-oxide chloride]
  half-life: ~2.5 h

— patent US8354454B2, “Prodrugs of oxazolidinone CETP inhibitors” (Merck Sharp & Dohme Corp., priority 2008, dated 2013)
